Assay results: BindingDB's records for patent US12247004 (Oxford Drug Design, 2025)

How the values were obtained:
Isoleucine--tRNA ligase = Isoleucine--tRNA ligase (Escherichia coli (strain K12), UniProt P00956); assay: Enzyme Inhibition Assay
Procedure: (§1) Single Point Percentage InhibitionThe activity of the pathogenic aaRSs was monitored by measuring AMP production using the commercial kit AMP-Glo (Promega, Madison, USA).Ligand stock solutions were prepared in 100% DMSO at 10 mM concentration. An assay buffer consisting of 100 mM Tris HCl pH 7.6, 40 mM MgCl, 20 mM KCl and 150 mM NaCl was prepared in dH2O. […] A substrate solution was also prepared in assay buffer with 50 mM L-leucine, 10 mM ATP and 100 mg/mL tRNA.

Leucine--tRNA ligase = Leucine--tRNA ligase (Escherichia coli (strain K12), UniProt P07813); assay: Enzyme Inhibition Assay
Leucine--tRNA ligase, sequence (P07813 whole entry): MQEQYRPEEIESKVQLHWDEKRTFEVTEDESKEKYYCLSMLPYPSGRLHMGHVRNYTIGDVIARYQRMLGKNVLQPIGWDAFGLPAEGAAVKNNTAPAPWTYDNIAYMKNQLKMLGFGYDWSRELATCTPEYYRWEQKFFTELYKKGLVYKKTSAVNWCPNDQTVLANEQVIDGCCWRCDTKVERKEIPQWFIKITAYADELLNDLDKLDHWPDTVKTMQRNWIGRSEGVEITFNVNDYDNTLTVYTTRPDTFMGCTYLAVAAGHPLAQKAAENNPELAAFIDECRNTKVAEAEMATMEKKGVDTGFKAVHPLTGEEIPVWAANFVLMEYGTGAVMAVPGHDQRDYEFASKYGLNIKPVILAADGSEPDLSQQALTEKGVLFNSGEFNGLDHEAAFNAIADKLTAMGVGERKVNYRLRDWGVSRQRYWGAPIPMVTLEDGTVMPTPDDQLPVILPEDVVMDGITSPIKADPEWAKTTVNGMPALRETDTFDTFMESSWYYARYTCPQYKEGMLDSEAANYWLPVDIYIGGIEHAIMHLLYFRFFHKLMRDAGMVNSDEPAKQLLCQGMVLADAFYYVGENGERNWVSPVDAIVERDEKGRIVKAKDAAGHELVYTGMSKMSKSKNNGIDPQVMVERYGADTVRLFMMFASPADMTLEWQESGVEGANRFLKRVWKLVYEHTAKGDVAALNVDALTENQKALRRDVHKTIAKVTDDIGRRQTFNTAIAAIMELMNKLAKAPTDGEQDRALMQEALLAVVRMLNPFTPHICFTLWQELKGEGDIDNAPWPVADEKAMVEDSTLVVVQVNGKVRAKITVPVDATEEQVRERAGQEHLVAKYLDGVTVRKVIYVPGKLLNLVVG
Procedure: as §1

Isoleucine--tRNA ligase, sequence (P00956 whole entry): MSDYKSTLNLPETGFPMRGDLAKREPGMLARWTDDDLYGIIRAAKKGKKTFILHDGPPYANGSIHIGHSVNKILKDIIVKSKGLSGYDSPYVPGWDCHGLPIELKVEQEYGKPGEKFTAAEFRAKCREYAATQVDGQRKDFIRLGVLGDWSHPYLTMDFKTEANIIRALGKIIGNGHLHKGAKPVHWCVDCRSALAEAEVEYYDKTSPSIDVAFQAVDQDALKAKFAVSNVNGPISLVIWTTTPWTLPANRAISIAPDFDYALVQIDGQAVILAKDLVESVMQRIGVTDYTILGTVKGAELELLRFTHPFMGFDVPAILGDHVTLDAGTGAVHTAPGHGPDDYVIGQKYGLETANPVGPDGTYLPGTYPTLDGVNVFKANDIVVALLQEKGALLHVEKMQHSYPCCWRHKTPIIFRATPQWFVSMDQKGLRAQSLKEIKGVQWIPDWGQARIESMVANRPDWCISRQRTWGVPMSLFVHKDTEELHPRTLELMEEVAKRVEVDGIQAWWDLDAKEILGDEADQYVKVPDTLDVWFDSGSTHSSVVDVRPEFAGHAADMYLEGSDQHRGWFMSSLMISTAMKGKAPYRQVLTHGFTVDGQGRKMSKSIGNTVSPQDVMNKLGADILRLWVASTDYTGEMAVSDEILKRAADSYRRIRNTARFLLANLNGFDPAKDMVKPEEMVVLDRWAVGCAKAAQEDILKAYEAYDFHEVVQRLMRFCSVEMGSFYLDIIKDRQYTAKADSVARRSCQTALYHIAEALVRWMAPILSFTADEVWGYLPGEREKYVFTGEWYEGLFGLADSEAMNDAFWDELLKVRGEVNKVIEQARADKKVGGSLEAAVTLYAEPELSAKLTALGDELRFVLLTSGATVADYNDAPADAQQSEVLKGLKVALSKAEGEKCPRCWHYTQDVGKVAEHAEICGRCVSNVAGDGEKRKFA

| Structure (SMILES) | IC50 (Isoleucine--tRNA ligase) [µM] | IC50 (Leucine--tRNA ligase) [µM] |
| --- | --- | --- |
| CC[C@H](C)[C@H](N)C(=O)N=S(N)(=O)c1ccc2ccccc2c1 (some centres not stated) [US12247004, Compound ANASIA-030] | 9.59 |  |
| CC(C)C[C@H](N)C(=O)N=S(N)(=O)c1cc[nH]n1 (some centres not stated) [US12247004, Compound ANASIA-064] |  | 2.17 |
